Reference: PubChem BioAssay (NCI)
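The concentration for 50% growth inhibition is given as GI50. TGI: total growth inhibition.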

Experiments:
Experiment in all cases: NCI anticancer screen, dose series, 384-well format
786-0 renal = tested on: 786-0 renal
A498 renal = tested on: A498 renal
A549 NSCLC = tested on: A549 NSCLC
ACHN renal = tested on: ACHN renal
BT-549 breast = tested on: BT-549 breast
CAKI-1 renal = tested on: CAKI-1 renal
CCRF-CEM leukemia = tested on: CCRF-CEM leukemia
COLO 205 colon = tested on: COLO 205 colon
DU-145 prostate = tested on: DU-145 prostate
EKVX NSCLC = tested on: EKVX NSCLC
HCC-2998 colon = tested on: HCC-2998 colon
HCT-116 colon = tested on: HCT-116 colon
HCT-15 colon = tested on: HCT-15 colon
HL-60(TB) leukemia = tested on: HL-60(TB) leukemia
HOP-62 NSCLC = tested on: HOP-62 NSCLC
HOP-92 NSCLC = tested on: HOP-92 NSCLC
HS 578T breast = tested on: HS 578T breast
HT29 colon = tested on: HT29 colon
IGROV1 ovarian = tested on: IGROV1 ovarian
K-562 leukemia = tested on: K-562 leukemia
KM12 colon = tested on: KM12 colon
LOX IMVI melanoma = tested on: LOX IMVI melanoma
M14 melanoma = tested on: M14 melanoma
MALME-3M melanoma = tested on: MALME-3M melanoma
MCF7 breast = tested on: MCF7 breast
MDA-MB-231 breast = tested on: MDA-MB-231 breast
MDA-MB-435 melanoma = tested on: MDA-MB-435 melanoma
MDA-MB-468 breast = tested on: MDA-MB-468 breast
MOLT-4 leukemia = tested on: MOLT-4 leukemia
NCI-H226 lung = tested on: NCI-H226 lung
NCI-H23 lung = tested on: NCI-H23 lung
NCI-H322M lung = tested on: NCI-H322M lung
NCI-H460 NSCLC = tested on: NCI-H460 NSCLC
NCI-H522 lung = tested on: NCI-H522 lung
NCI/ADR-RES ovarian = tested on: NCI/ADR-RES ovarian
OVCAR-3 ovarian = tested on: OVCAR-3 ovarian
OVCAR-4 ovarian = tested on: OVCAR-4 ovarian
OVCAR-5 ovarian = tested on: OVCAR-5 ovarian
OVCAR-8 ovarian = tested on: OVCAR-8 ovarian
PC-3 prostate = tested on: PC-3 prostate
RPMI-8226 leukemia = tested on: RPMI-8226 leukemia
RXF 393 renal = tested on: RXF 393 renal
SF-268 CNS = tested on: SF-268 CNS
SF-295 CNS = tested on: SF-295 CNS
SF-539 CNS = tested on: SF-539 CNS
SK-MEL-2 melanoma = tested on: SK-MEL-2 melanoma
SK-MEL-28 melanoma = tested on: SK-MEL-28 melanoma
SK-MEL-5 melanoma = tested on: SK-MEL-5 melanoma
SK-OV-3 ovarian = tested on: SK-OV-3 ovarian
SN12C renal = tested on: SN12C renal
SNB-19 CNS = tested on: SNB-19 CNS
SNB-75 CNS = tested on: SNB-75 CNS
SW-620 colon = tested on: SW-620 colon
T-47D breast = tested on: T-47D breast
TK-10 renal = tested on: TK-10 renal
U251 glioblastoma = tested on: U251 glioblastoma
UACC-257 melanoma = tested on: UACC-257 melanoma
UACC-62 melanoma = tested on: UACC-62 melanoma
UO-31 renal = tested on: UO-31 renal

Question: Which results are given for Cc1cc(C(=O)Nc2nc3cccc(Cl)c3n2[C@@H]2CCCCN(C(=O)/C=C/CN(C)C)C2)ccn1?
Answer: GI50 ([…]-0 renal): 2980 nM; TGI (786-0 renal): 13.1 µM; GI50 (A498 renal): 1450 nM; TGI (A498 renal): 10.8 µM; GI50 (A549 NSCLC): 2490 nM; TGI (A549 NSCLC): 13.6 µM; GI50 (ACHN renal): 1480 nM; TGI (ACHN renal): 12.5 µM; GI50 (BT-549 breast): 2660 nM; TGI (BT-549 breast): 9.69 µM; GI50 (CAKI-1 renal): 1440 nM; TGI (CAKI-1 renal): 14.8 µM; GI50 (CCRF-CEM leukemia): 1560 nM; TGI (CCRF-CEM leukemia): 2980 nM; GI50 (COLO 205 colon): 4.23 µM; TGI (COLO 205 colon): 15.6 µM; GI50 (DU-145 prostate): 2340 nM; TGI (DU-145 prostate): 13.6 µM; GI50 (EKVX NSCLC): 648 nM; TGI (EKVX NSCLC): 3.73 µM; GI50 (HCC-2998 colon): 2440 nM; TGI (HCC-2998 colon): 6.43 µM; GI50 (HCT-116 colon): 3.17 µM; TGI (HCT-116 colon): 10.9 µM; GI50 (HCT-15 colon): 2730 nM; TGI (HCT-15 colon): 10.7 µM; GI50 (HL-60(TB) leukemia): 1490 nM; TGI (HL-60(TB) leukemia): 2820 nM; GI50 (HOP-62 NSCLC): 1930 nM; TGI (HOP-62 NSCLC): 5.59 µM; GI50 (HOP-92 NSCLC): 2930 nM; TGI (HOP-92 NSCLC): 13.9 µM; GI50 (HS 578T breast): 1620 nM; TGI (HS 578T breast): 6.37 µM; GI50 (HT29 colon): 4.41 µM; TGI (HT29 colon): 16.1 µM; GI50 (IGROV1 ovarian): 697 nM; TGI (IGROV1 ovarian): 2790 nM; GI50 (K-562 leukemia): 3.03 µM; TGI (K-562 leukemia): 12.4 µM; GI50 (KM12 colon): 3.36 µM; TGI (KM12 colon): 12.5 µM; GI50 (LOX IMVI melanoma): 2240 nM; TGI (LOX IMVI melanoma): 5.51 µM; GI50 (M14 melanoma): 2750 nM; TGI (M14 melanoma): 11.5 µM; GI50 (MALME-3M melanoma): 2760 nM; TGI (MALME-3M melanoma): 10.8 µM; GI50 (MCF7 breast): 2510 nM; TGI (MCF7 breast): 11.3 µM; GI50 (MDA-MB-231 breast): 4.34 µM; TGI (MDA-MB-231 breast): 17 µM; GI50 (MDA-MB-435 melanoma): 3.35 µM; TGI (MDA-MB-435 melanoma): 12.3 µM; GI50 (MDA-MB-468 breast): 111 nM; TGI (MDA-MB-468 breast): 507 nM; GI50 (MOLT-4 leukemia): 1400 nM; TGI (MOLT-4 leukemia): 2720 nM; GI50 (NCI-H226 lung): 3.39 µM; TGI (NCI-H226 lung): 15.9 µM; GI50 (NCI-H23 lung): 2830 nM; TGI (NCI-H23 lung): 10.5 µM; GI50 (NCI-H322M lung): 367 nM; TGI (NCI-H322M lung): 10.1 µM; GI50 (NCI-H460 NSCLC): 2990 nM; TGI (NCI-H460 NSCLC): 10.6 µM; GI50 (NCI-H522 lung): 120 nM; TGI (NCI-H522 lung): 2070 nM; GI50 (NCI/ADR-RES ovarian): 2300 nM; TGI (NCI/ADR-RES ovarian): 9.63 µM; GI50 (OVCAR-3 ovarian): 1460 nM; TGI (OVCAR-3 ovarian): 4.15 µM; GI50 (OVCAR-4 ovarian): 3.56 µM; TGI (OVCAR-4 ovarian): 14.7 µM; GI50 (OVCAR-5 ovarian): 3.08 µM; TGI (OVCAR-5 ovarian): 14.2 µM; GI50 (OVCAR-8 ovarian): 3.15 µM; TGI (OVCAR-8 ovarian): 13.7 µM; GI50 (PC-3 prostate): 3.45 µM; TGI (PC-3 prostate): 14.3 µM; GI50 (RPMI-8226 leukemia): 1400 nM; TGI (RPMI-8226 leukemia): 3.77 µM; GI50 (RXF 393 renal): 4.04 µM; TGI (RXF 393 renal): 15.3 µM; GI50 (SF-268 CNS): 3.02 µM; TGI (SF-268 CNS): 14 µM; GI50 (SF-295 CNS): 4.09 µM; TGI (SF-295 CNS): 14.5 µM; GI50 (SF-539 CNS): 3.23 µM; TGI (SF-539 CNS): 11 µM; GI50 (SK-MEL-2 melanoma): 2430 nM; TGI (SK-MEL-2 melanoma): 7.52 µM; GI50 (SK-MEL-28 melanoma): 7.02 µM; TGI (SK-MEL-28 melanoma): 20.1 µM; GI50 (SK-MEL-5 melanoma): 1710 nM; TGI (SK-MEL-5 melanoma): 4.83 µM; GI50 (SK-OV-3 ovarian): 928 nM; TGI (SK-OV-3 ovarian): 10.2 µM; GI50 (SN12C renal): 1790 nM; TGI (SN12C renal): 13.9 µM; GI50 (SNB-19 CNS): 3.49 µM; TGI (SNB-19 CNS): 14.9 µM; GI50 (SNB-75 CNS): 5.5 µM; TGI (SNB-75 CNS): 17.9 µM; GI50 (SW-620 colon): 2930 nM; TGI (SW-620 colon): 8.65 µM; GI50 (T-47D breast): 2650 nM; TGI (T-47D breast): 17.3 µM; GI50 (TK-10 renal): 494 nM; TGI (TK-10 renal): 7.41 µM; GI50 (U251 glioblastoma): 2610 nM; TGI (U251 glioblastoma): 8.17 µM; GI50 (UACC-257 melanoma): 2560 nM; TGI (UACC-257 melanoma): 8.75 µM; GI50 (UACC-62 melanoma): 3.62 µM; TGI (UACC-62 melanoma): 14.1 µM; GI50 (UO-31 renal): 2050 nM; TGI (UO-31 renal): 12.9 µM
